Data from US20050203013A1, “Methods for inhibiting vascular permeability” (priority 2002, published 2005).

Columns and labels:
[1] = system: Bovine adrenal capillary endothelial cells; experiment: BCE proliferation assay; assay type: cell-based; settings: challenged with bFGF, 72 h
Protocol: Bovine adrenal capillary endothelial cells were seeded on gelatinized plates (15,000/well). Following 24 h incubation, cells were challenged with free and conjugated TNP-470, and bFGF (1 ng/ml) was added to the medium. Cells were counted after 72 h.

[2] = system: VEGFR-2; experiment: VEGFR-2 phosphorylation in HUVEC; assay type: cell-based, Human; settings: 5 ng/ml for 2 hours
Protocol: Serum-starved (0.1% FBS in EBM-2 media for 24 hours) HMVEC-d or HUVEC were treated with 5 ng/ml TNP-470 and HPMA copolymer-TNP-470 at 37° C. for 2 hours, and then stimulated with 10 ng/ml of VEGF for 5 minutes. Stimulation was stopped by adding cold PBS. […] After washing the beads with precipitation buffer, immunoprecipitates were resuspended in 2× SDS sample buffer for Western blot analysis with an antibody against phosphorylated tyrosine (pTyr).

[3] = system: BCE cells; experiment: Junction protein staining of BCE cells treated with TNP-470; assay type: cell-based, Bovine; settings: 3 days in culture, stimulated by VEGF or PAF
Protocol: BCE cells were grown on a coverslip glass in a 24-well plate (200,000 cells/well) in DMEM+10% BCS+3 ng/ml bFGF. Cells were treated with TNP-470 for 3 days in culture. Cells were stimulated with VEGF (5 ng/ml) or PAF (100 nM) for 20 min. Cells were stained for occludin, claudin, ZO-1, beta-catenin and VE-cadherin with fluorescent antibodies.

[4] = system: HMVEC-d cells; experiment: Cell proliferation assay, HMVEC-d; assay type: cell-based, Human
Protocol: HMVEC-d cells were trypsinized (0.05% trypsin) and resuspended (15,000 cells/ml) in EBM-2 supplemented with 5% fetal bovine serum (FBS), plated onto gelatinized 24-well culture plates (0.5 ml/well), and incubated for 24 hours (37° C., 5% CO2). The media was replaced with 0.5 ml of complete media (serum and growth factors; EGM-2 MV), and test substances were applied. Cells were challenged with free or conjugated TNP-470 (0.01 pg/ml to 1 mg/ml TNP-470-equivalent concentration). Control cells were grown with or without growth factors. U87 glioblastoma cells were washed with PBS, trypsinized and resuspended (5,000 cells/ml) in DMEM supplemented with 10% FBS, plated onto 24-well culture plates (0.5 ml/well), and incubated for 24 hours (37° C., 5% CO2). The media was replaced with 0.5 ml of DMEM and 10% FBS, and the test sample applied. Cells were challenged with free or conjugated TNP-470 (0.01 pg/ml to 1 mg/ml TNP-470-equivalent concentration). Control cells were grown with or without 10% FBS. Both cell types were incubated for 72 hours, followed by trypsinization, resuspension in Hematall (Fisher Scientific, Pittsburgh, Pa.), and counted in a Coulter counter.

[5] = system: MAPK; experiment: Phosphorylation of MAPK; assay type: cell-based, Human; settings: HMVEC-d
Protocol: Serum-starved HMVEC-d were treated with 5 ng/ml TNP-470 at 37° C. for 2 hours, and then stimulated with 10 ng/ml of VEGF for 5 minutes. Stimulation was stopped by adding cold PBS. Cells were lysed with cold radioimmune precipitation buffer. Cellular extracts (20 μg) were immunoblotted with an antibody against phosphorylated MAPK (p-MAPK) (Cell Signaling Technology Inc.). The blot was stripped and reprobed with an antibody against MAPK to confirm equal protein loading.

[6] = system: U87 glioblastoma tumor blood vessel permeability; experiment: Miles assay on tumor-bearing mice (Example 3), U87; set-up: species or system SCID mice; settings: mouse, in vivo
Protocol: Female SCID mice ( 8 weeks, 20 g) were inoculated s.c. with 5×10^6 viable U87 glioblastoma cells or viable A2058 human melanoma cells or BXPC3 pancreas adenocarcinoma cells. Female nu/nu mice were inoculated with MCF-7 or MDA-MB-231 breast carcinoma cells in the mammary fat pad. C57B1/6J were inoculated with LLC. […] blue dye was then injected i.v. and extravasation of dye assessed as above. Also, blood was withdrawn to measure VPF/VEGF levels in plasma and in tumors (n=5 from each group). Tumors (n=5 per group) were dissected, weighed and cut in half. Half of the tumor was placed in formalin and half was analyzed for VPF/VEGF protein by ELISA (see below). Formalin fixed tumors were processed for sectioning and staining with H & E, CD31, smooth muscle actin (SMA) and proliferating cell nuclear antigen (PCNA) according to the manufacturers' instructions.

[7] = system: IL-2-induced pulmonary edema; experiment: IL-2 associated pulmonary edema; assay type: in vivo, C57B1/6J male mice
Protocol: C57B1/6J male mice were injected with TNP-470 (30 mg/kg daily) or saline subcutaneously (s.c.) for three days. Then mice were injected with IL-2 (1.2×106 units/100 μl) or saline intraperitoneally (i.p.) 3 times a day for 5 days. At termination mice were euthanized and lungs were dissected, weighed, fixed and processed for H & E staining.

[8] = system: VEGF-induced skin permeability; experiment: Modified Miles assay with VEGF dose response; assay type: in vivo, C57 mice; settings: 30 mg/kg/d s.c. for 3 days, intradermal VEGF
Excerpt: TNP-470, HPMA copolymer-TNP-470 and angiostatin all inhibited Evan's blue extravasation into A2058 melanoma (P<0.03 versus control), murine Lewis lung carcinoma (P<0.05), MCF-7 breast carcinoma (P<0.04), MDA-MB-231 breast carcinoma (P<0.05) and BXPC3 pancreatic adenocarcinoma (P<0.04) by 40-90% compared to control tumors treated with saline (FIG. 16B). […] In order to test the effect of VEGF secreted from the tumor and the ability of TNP-470 to inhibit the permeability induced by such amount of VEGF, a modified Miles assay using a dose response of VEGF was used. Groups of 8 week old C57 mice were treated with TNP-470 (30 mg/kg/d s.c. for 3 days) or with saline. Then we injected 100 μl 1% Evan's Blue i.v. and after 10 min injected VEGF intradermally at different concentrations. We collected skin punch biopsies and extracted dye with formamide at RT over 5 days and read the extracts at 620 nm (FIG. 16C).

[9] = system: chick aortic rings; experiment: Chick aortic ring assay; assay type: cell-based
Protocol: Aortic arches were dissected from day-14 chick embryos and cut into cross-sectional fragments, everted to expose the endothelium, and explanted in Matrigel. When cultured in serum-free MCDB-131 medium, endothelial cells outgrow and three-dimensional vascular channel formation occurred within […]. Free and conjugated TNP-470 were added to the culture.

CO[C@@H]1[C@H](OC(=O)NC(=O)CCl)CC[C@]2(CO2)[C@H]1[C@@]1(C)O[C@@H]1CC=C(C)C [TNP-470]
BCE cell growth [1]: inhibited | VPF/VEGF-induced phosphorylation of VEGFR-2 [2]: significantly reduced | effect on occludin, claudin, ZO-1, beta-catenin or VE-cadherin [3]: did not see any significant and reproducible effect | endothelial cell vs tumor cell inhibitory concentration difference ([4]; HMVEC-d vs U87): 4 orders of magnitude | concentration inhibiting growth factor-induced proliferation without cytotoxicity ([4]; HMVEC-d, 72 hours): ≥ 1 pg/mL | cytotoxic concentration ([4]; HMVEC-d, 72 hours): higher than 1 μg/ml | VPF/VEGF-induced MAPK phosphorylation [5]: inhibited | Evan's blue extravasation into U87 glioblastomas [6]: did not inhibit | total body weight ([7]; 3 days treatment): did not affect total body weight | lung pathological features (congestion, edema, fibrin deposition, mononuclear infiltrate) ([7]; IL-2 treated mice): greatly reduced | lung weight ([7]; mice treated with both IL-2 and TNP-470): 170.2 ± 10.1 mg | VEGF dose up to which permeability was inhibited [8]: up to 25 ng | concentration showing efficacy (reduced number and length of vascular sprouts) [9]: 50 pg/mL | concentration that completely prevented outgrowth [9]: 100 pg/mL
